According to PubChem BioAssay (NCI):
Values joined by “and” are separate entries in the source; they are usually repeats but may differ in a detail not shown here. Equal values may be shown once.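 Tested at 5 concentrations; 48 h exposure; 96-well plates; endpoints linearly interpolated, else capped at highest concentration. GI50 is the concentration that inhibits growth by half. TGI: concentration producing complete growth inhibition.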

Assays:
Experiment in all cases: NCI tumour cell line growth inhibition, 48 h
TK-10 renal = system: TK-10 renal
P388 leukemia = system: P388 leukemia
MALME-3M melanoma = system: MALME-3M melanoma
HCT-15 colon = system: HCT-15 colon
RXF 393 renal = system: RXF 393 renal
SF-295 CNS = system: SF-295 CNS
UACC-62 melanoma = system: UACC-62 melanoma
HCT-116 colon = system: HCT-116 colon
M14 melanoma = system: M14 melanoma
UO-31 renal = system: UO-31 renal
KM12 colon = system: KM12 colon
HL-60(TB) leukemia = system: HL-60(TB) leukemia
OVCAR-8 ovarian = system: OVCAR-8 ovarian
RPMI-8226 leukemia = system: RPMI-8226 leukemia
SK-MEL-2 melanoma = system: SK-MEL-2 melanoma
HOP-18 NSCLC = system: HOP-18 NSCLC
U251 CNS = system: U251 CNS
ACHN renal = system: ACHN renal
EKVX NSCLC = system: EKVX NSCLC
786-0 renal = system: 786-0 renal
SK-MEL-5 melanoma = system: SK-MEL-5 melanoma
NCI-H522 lung = system: NCI-H522 lung
K-562 leukemia = system: K-562 leukemia
LOX IMVI melanoma = system: LOX IMVI melanoma
COLO 205 colon = system: COLO 205 colon
KM20L2 colon = system: KM20L2 colon
SF-539 CNS = system: SF-539 CNS
NCI-H226 lung = system: NCI-H226 lung
IGROV1 ovarian = system: IGROV1 ovarian
M19-MEL melanoma = system: M19-MEL melanoma
HCC-2998 colon = system: HCC-2998 colon
OVCAR-5 ovarian = system: OVCAR-5 ovarian
HOP-92 NSCLC = system: HOP-92 NSCLC
NCI/ADR-RES ovarian = system: NCI/ADR-RES ovarian
SW-620 colon = system: SW-620 colon
SNB-78 CNS = system: SNB-78 CNS
MCF7 breast = system: MCF7 breast
UACC-257 melanoma = system: UACC-257 melanoma
DLD-1 colon = system: DLD-1 colon
SN12C renal = system: SN12C renal
HOP-62 NSCLC = system: HOP-62 NSCLC
A498 renal = system: A498 renal
DMS 114 small cell lung = system: DMS 114 small cell lung
NCI-H23 lung = system: NCI-H23 lung
SN12K1 renal = system: SN12K1 renal
LXFL 529 NSCLC = system: LXFL 529 NSCLC
CCRF-CEM leukemia = system: CCRF-CEM leukemia
P388/ADR leukemia = system: P388/ADR leukemia
SF-268 CNS = system: SF-268 CNS
SNB-19 CNS = system: SNB-19 CNS
XF 498 CNS = system: XF 498 CNS
NCI-H460 lung = system: NCI-H460 lung
SK-OV-3 ovarian = system: SK-OV-3 ovarian
OVCAR-4 ovarian = system: OVCAR-4 ovarian
A549 NSCLC = system: A549 NSCLC
OVCAR-3 ovarian = system: OVCAR-3 ovarian
MOLT-4 leukemia = system: MOLT-4 leukemia
HT29 colon = system: HT29 colon
SK-MEL-28 melanoma = system: SK-MEL-28 melanoma
SNB-75 CNS = system: SNB-75 CNS
DMS 273 small cell lung = system: DMS 273 small cell lung
CAKI-1 renal = system: CAKI-1 renal

Cc1c2ccncc2c(C)c2c1[nH]c1ccc(Cl)cc12 showed a TGI (TK-10 renal) of 18.1 µM, a TGI (P388 leukemia) of 3.91 µM and a GI50 (MALME-3M melanoma) of 3.63 µM. The TGI (MALME-3M melanoma) was 14.3 µM and 15.2 µM, the GI50 (HCT-15 colon) was 1.41 µM and the TGI (HCT-15 colon) was 5.17 µM and 3.23 µM. The TGI (RXF 393 renal) was 9.91 µM, the GI50 (SF-295 CNS) was 2.56 µM and 3.56 µM and the TGI (SF-295 CNS) was 8.38 µM and 15.3 µM. For the same molecule, the GI50 (UACC-62 melanoma) was 4.13 µM, the TGI (UACC-62 melanoma) was 11.1 µM and 17 µM and the TGI (HCT-116 colon) was 2.98 µM and 5.14 µM. The TGI (M14 melanoma) was 16.7 µM, the GI50 (UO-31 renal) was 4.44 µM and the TGI (UO-31 renal) was 8.15 µM and 16.3 µM. For the same molecule, the GI50 (KM12 colon) was 4.25 µM, the TGI (KM12 colon) was 5.7 µM and 18.9 µM and the GI50 (HL-60(TB) leukemia) was 2.62 µM. For the same molecule, the TGI (OVCAR-8 ovarian) was 4.35 µM and 2.62 µM, the GI50 (RPMI-8226 leukemia) was 1.77 µM and the TGI (RPMI-8226 leukemia) was 9.7 µM and 4.43 µM. For the same molecule, the TGI (SK-MEL-2 melanoma) was 7.17 µM and 10.9 µM, the TGI (HOP-18 NSCLC) was 18 µM and the GI50 (U251 CNS) was 1.49 µM. The TGI (U251 CNS) was 11.5 µM and 2.94 µM, the TGI (ACHN renal) was 13.1 µM and the GI50 (EKVX NSCLC) was 3.9 µM. The TGI (EKVX NSCLC) was 12.6 µM and 19.3 µM, the TGI (786-0 renal) was 2.27 µM and the TGI (SK-MEL-5 melanoma) was 13.8 µM. For the same molecule, the TGI (NCI-H522 lung) was 9.18 µM and 17.1 µM, the GI50 (K-562 leukemia) was 1.21 µM and the TGI (K-562 leukemia) was 3.67 µM and 3.79 µM. For the same molecule, the TGI (LOX IMVI melanoma) was 6 µM and 2.94 µM, the GI50 (COLO 205 colon) was 3.09 µM and the TGI (COLO 205 colon) was 9.41 µM and 15 µM. For the same molecule, the GI50 (KM20L2 colon) was 3.06 µM, the TGI (KM20L2 colon) was 9.55 µM and the GI50 (SF-539 CNS) was 2.09 µM. For the same molecule, the TGI (SF-539 CNS) was 6.68 µM and 7.97 µM, the GI50 (NCI-H226 lung) was 8.58 µM and the TGI (NCI-H226 lung) was 11 µM and 25.4 µM. The GI50 (IGROV1 ovarian) was 3.88 µM, the TGI (IGROV1 ovarian) was 13.7 µM and 21.1 µM and the TGI (M19-MEL melanoma) was 7.93 µM and 8.98 µM. The GI50 (HCC-2998 colon) was 2.34 µM, the TGI (HCC-2998 colon) was 19.3 µM and 13.9 µM and the GI50 (OVCAR-5 ovarian) was 4.32 µM. The TGI (OVCAR-5 ovarian) was 16.6 µM and 16.3 µM, the GI50 (HOP-92 NSCLC) was 6.56 µM and 1.93 µM and the TGI (HOP-92 NSCLC) was 17.5 µM and 9.11 µM. The TGI (NCI/ADR-RES ovarian) was 4.75 µM, the GI50 (SW-620 colon) was 1.04 µM and the TGI (SW-620 colon) was 9.35 µM and 2.6 µM. For the same molecule, the GI50 (SNB-78 CNS) was 3.07 µM, the TGI (SNB-78 CNS) was 22.5 µM and 20.4 µM and the TGI (MCF7 breast) was 6.28 µM. For the same molecule, the GI50 (UACC-257 melanoma) was 5.39 µM and 2.34 µM, the TGI (UACC-257 melanoma) was 12 µM and 12.8 µM and the GI50 (DLD-1 colon) was 1.67 µM. The TGI (DLD-1 colon) was 8.14 µM and 4.89 µM, the GI50 (SN12C renal) was 1.41 µM and the TGI (SN12C renal) was 10.1 µM and 7.46 µM. The GI50 (HOP-62 NSCLC) was 2.66 µM, the TGI (HOP-62 NSCLC) was 13.9 µM and 9.86 µM and the TGI (A498 renal) was 14.7 µM. The GI50 (DMS 114 small cell lung) was 2.6 µM, the TGI (DMS 114 small cell lung) was 6.1 µM and 13 µM and the GI50 (NCI-H23 lung) was 2.99 µM. The TGI (NCI-H23 lung) was 11.2 µM and 15 µM, the TGI (SN12K1 renal) was 7.81 µM and the TGI (LXFL 529 NSCLC) was 14 µM. The TGI (CCRF-CEM leukemia) was 4.43 µM and 6.3 µM, the TGI (P388/ADR leukemia) was 10.2 µM and the GI50 (SF-268 CNS) was 2.63 µM and 2.66 µM. The TGI (SF-268 CNS) was 12.5 µM and 25.2 µM, the GI50 (SNB-19 CNS) was 3 µM and the TGI (SNB-19 CNS) was 8.36 µM and 15.5 µM. The GI50 (XF 498 CNS) was 1.41 µM, the TGI (XF 498 CNS) was 9.43 µM and 2.71 µM and the GI50 (NCI-H460 lung) was 3.08 µM. The TGI (NCI-H460 lung) was 4.46 µM and 12.2 µM, the GI50 (SK-OV-3 ovarian) was 12.2 µM and the TGI (SK-OV-3 ovarian) was 17.9 µM and 31.1 µM. The GI50 (OVCAR-4 ovarian) was 2.42 µM, the TGI (OVCAR-4 ovarian) was 5.45 µM and 13.4 µM and the GI50 (A549 NSCLC) was 3.27 µM and 3.56 µM. The TGI (A549 NSCLC) was 11.2 µM and 15.2 µM, the GI50 (OVCAR-3 ovarian) was 4.62 µM and the TGI (OVCAR-3 ovarian) was 5.71 µM and 16.6 µM. The GI50 (MOLT-4 leukemia) was 0.91 µM and 0.471 µM, the TGI (MOLT-4 leukemia) was 2.59 µM and 2.77 µM and the GI50 (HT29 colon) was 1.04 µM. For the same molecule, the TGI (HT29 colon) was 9.24 µM and 2.52 µM, the GI50 (SK-MEL-28 melanoma) was 1.93 µM and the TGI (SK-MEL-28 melanoma) was 13.3 µM and 3.67 µM. For the same molecule, the TGI (SNB-75 CNS) was 10 µM and 12.7 µM, the TGI (DMS 273 small cell lung) was 5.75 µM and the GI50 (CAKI-1 renal) was 0.602 µM and 5.24 µM.
